Measured values as given in patent publication US4361573A, “α,α-Diaryl-β-(tert-amino)-propanols and diuretic pharmaceutical compositions containing them” (Temmler AG, priority 1974, dated 1982).
Where two headings read alike, the source gives them in different places.

How the values were obtained:
[1] = mice, oral; literature value; cited from earlier work
[2] = saluretic efficiency test in rats: elimination of water, sodium, chloride and potassium in 6 h urine after oral dosing; assay type: in vivo; conditions: rats, oral; for change in vivo at 40 µmol/kg / change in vivo at 80 µmol/kg: Rattus norvegicus
Procedure: In order to test the saluretic efficiency of the compounds of the invention rats having a weight of 150 to 200 g were used. The animals were kept without food, but not without drinking water, for 15 hours before the beginning of the test. The test substances were administered to groups of four rats, of substantially equal weight, with a rigid stomach probe in a 1% methyl cellulose slime. The dose required per 100 g animal (unit dosage in μmol/kg body weight) was contained in one ml. Following the administration of the substance the rats were given 5 ml 0.9% sodium chloride solution per 100 g body weight p.o. and placed in a diuresis funnel after manually emptying the bladder. Urine was collected for 6 hours in an airconditioned chamber at 24°±1° C. and a relative air humidity of 50±5%. The diuretic effect of a particular dose was tested on at least two, but more frequently however on four to eight groups of rats. Two sodium chloride controls were also used for each test day.
At the end of the collecting periods the volumes of urine discharged per group were noted and the pH value and also the content of sodium, potassium (flame-photometrically) and chloride (measured argentometrically with the determination of the end point potentiometrically) were determined.
From the analysis results the quantities of Na^+, K^+ and Cl^- eliminated were calculated in […] body weight, and the values thus obtained compared with those of the control animals.
Means values and twice the standard deviation were calculated from the data for the sodium chloride controls, in order to determine the normal range. Then, for the values found with the test substances, the percentage variations from the average in respect of these parameters were calculated and tabulated. In this connection, with the results given in Table 1, the upper limit of the normal range, which is defined as the mean value plus twice the standard deviation, was selected as the reference quantity for the variations. In this way relevant hyper-eliminations could clearly be recognised.
In Table 2, the mean percentage variations in potassium elimination after administration of the compounds in accordance with the invention are compared with the mean value of the potassium elimination in the case of the sodium chloride controls. At the same time the […] ratio is given which provides conclusive evidence of the effective saluretic property. The larger this quotient is, then the more sodium than potassium is eliminated in proportion.

[3] = comparison of toxicity in mice: oral LD50 by the Lichtfiel & Wilcoxon method; assay type: in vivo; conditions: mouse, in vivo, observation period 7 days, 95% confidence limit in brackets, read-out: LD50
From the text: In Table 3 the mean lethal doses for mice, administered orally (LD50 determination by the […] & WILCOXON method - J.Pharmacol. Exp. Ther. 96,98 (1949)) are compared.

[4] = 6 h, 40 μmol/kg body wt., relative to mean K+ elimination of the controls, read-out: Mean percentage variation in the elimination of potassium
[5] = 6 h, 80 μmol/kg body wt., relative to mean K+ elimination of the controls, read-out: Mean percentage variation in the elimination of potassium
[6] = 40 μmol/kg body wt., deviation from control mean plus twice the standard deviation, 6 h urine, read-out: Mean percentage variation in the elimination of Chloride
[7] = 40 μmol/kg body wt., deviation from control mean plus twice the standard deviation, 6 h urine, read-out: Mean percentage variation in the elimination of H2O
[8] = 40 μmol/kg body wt., deviation from control mean plus twice the standard deviation, 6 h urine, read-out: Mean percentage variation in the elimination of Sodium
[9] = 80 μmol/kg body wt., deviation from control mean plus twice the standard deviation, 6 h urine, read-out: Mean percentage variation in the elimination of Chloride
[10] = 80 μmol/kg body wt., deviation from control mean plus twice the standard deviation, 6 h urine, read-out: Mean percentage variation in the elimination of H2O
[11] = 80 μmol/kg body wt., deviation from control mean plus twice the standard deviation, 6 h urine, read-out: Mean percentage variation in the elimination of Sodium

Compound | LD50 [1] [mg/kg] | change in vivo at 40 µmol/kg [2, 4] [%] | change in vivo at 80 µmol/kg [2, 5] [%] | change in vivo at 40 µmol/kg [2, 6] [%] | change in vivo at 40 µmol/kg [2, 7] [%] | change in vivo at 40 µmol/kg [2, 8] [%] | change in vivo at 80 µmol/kg [2, 9] [%] | change in vivo at 80 µmol/kg [2, 10] [%] | change in vivo at 80 µmol/kg [2, 11] [%] | Quotient Na/K ([2]; 40 μmol/kg body wt.) | Quotient Na/K ([2]; 80 μmol/kg body wt.) | LD50 [3] [mg/kg]
N=C(N)NC(=O)c1nc(Cl)c(N)nc1N [N-amidino-3.5-diamino-6-chloropyrazinocarboxamide] | 70 |  |  |  |  |  |  |  |  |  |  | 
COc1ccc(C)cc1C(O)(c1cc(C(C)C)c(OCc2ccccc2)c(C(C)C)c1)C(C)N1CCCCC1 (centres unmarked) [T 2481, 1-(2'-methoxy-5'-methylphenyl)-1-(4"-benzyloxy-3",5"-diisopropylphenyl)-2-piperidino-propan-1-ol] |  | -4.1 | 16.3 | -7.5 | 3 | -2.4 | 20 | 34.1 | 43.8 | 6.04 | 7.34 | 3780
COc1c(C)cc(C(O)(c2cc(Cl)cc(C)c2OC)C(C)N(C)C(C)(C)C)cc1C (centres unmarked) [T 2493, 1-(3'-chloro-6'-methoxy-5'-methylphenyl)-1-(4"-methoxy-3",5"-dimethylphenyl)-2-(N-methyl-tertiary-butylamino)-propan-1-ol] |  | 35.7 | 34.7 | 41 | 59.2 | 62.7 | 41.5 | 64.4 | 76.8 | 7.74 | 7.88 | 3610
